According to patent US8445437B2, “Treatment and prevention of cardiovascular disease using mast cell stabilizers” (The Brigham and Women's Hospital, Inc., priority 2006, dated 2013):

Test system: LDLr-/- mice fed an atherogenic (Western) diet
Experiment: Diet-induced atherosclerosis in LDLr-/- mice with mast cell stabilization or activation
Format: in vivo, mouse
Details: male LDLr-/- mice, 25 mg/kg/day daily

O=C(O)c1cc(=O)c2c(OCC(O)COc3cccc4oc(C(=O)O)cc(=O)c34)cccc2o1 [DSCG, disodium cromoglycate]
reduction of atherosclerotic lesion development (12 weeks): > 50% | reduction of atherosclerotic lesion development (26 weeks): > 50%
